{"source": "patent US10245240B2", "about": "“Treatment of prostate carcinoma” (Pellficure Pharmaceuticals, Inc., priority 2010, dated 2019)", "key": {"[1]": {"tested_on": "PTEN-P2/GFP mouse cancer cells", "experiment": "Dose response plumbagin in PTEN-P2/GFP cells, cell counting with or without DHT", "format": "cell-based", "conditions": "for % control / Average % control: 24 hours; for Average % control: mean of two experiments", "experimental": "Cell counting: Cells in 12-well plates are washed once with PBS, detached using Trypsin, and transferred to a suspension vial in a final volume of 10 ml PBS. Cells are counted using a COULTER™ Multisizer II instrument (Beckman Coulter Inc., Hialeah, Fla.) gated for the appropriate cell size and corrected for particulate debris.\nPTEN-P2/GFP mouse cancer cells were placed in androgen withdrawal medium in the presence or absence of DHT (dihydrotestosterone) at a final concentration of 10^−8 M. Plumbagin was added at the indicated concentrations for 24 hours. The absence of DHT simulates surgical or chemical castration. Cells were trypsinized and counted using a Cell Coulter counter Multisizer II, which excludes debris. Results represent cell numbers as percent of control (in which the number of cells in the absence of drug is 100%).\nAndrogen withdrawal medium: DMEM high-glucose phenol-red free, with the following additives: 10% charcoal-treated Fetal Bovine Serum, 25 ug/ml bovine pituitary extract, 5 ug/ml insulin, 6 ng/ml EGF recombinant."}, "PTEN-P2/GFP tumor": {"tested_on": "PTEN-P2/GFP tumor", "experiment": "In vivo effect of plumbagin added two weeks after castration, pseudo-orthotopic chamber model (Example 6)", "design": "species or system nude mice", "conditions": "daily plumbagin ip 2 mg/kg, from two weeks after castration", "experimental": "Intravital microscopy: Fluorescence microscopy is performed using a Mikron Instrument Microscope equipped with epi-illuminator and video-triggered stroboscopic illumination from a xenon arc (MV-7600, EG&G). A silicon intensified target camera (SIT68, Dage-MTI) is attached to the microscope. A Hamamatsu image processor (Argus 20) with firmware version 2.50 (Hamamatsu Photonic System) is used for image enhancement and for the capture of images to a computer. A Zeiss Plan Neofluar 1.25×/0.035 objective is used to obtain an over-view of the chamber and to determine tumor size. A Zeiss A-Plan 10×/0.25 objective is used to capture images for calculation of vascular parameters. A Zeiss Achroplan 20×/0.5 W objective is used to capture images for calculation of mitotic and apoptotic indices. Our system permits evaluation of the following parameters.\nMitotic and Apoptotic Indices: At each time point, two peripheral and two central ×20 fields of the tumor are captured with a FITC filter and an integrated frame grabber. Only mitotic figures in metaphase-telophase (MI) are included in the mitotic indices to exclude the potential artifact of nuclear membrane distortion. Apoptotic/Pyknotic nuclei are defined as H2B-GFP labeled nuclei with a cross sectional area <30 μm^2. Nuclear karyorrhexis (NK), easily distinguishable by the vesicular nuclear condensation and brightness of H2B-GFP, is included within this apoptotic indices.\nPlatinum chambers were placed in the dorsal skinfold of nude mice by surgery. Two days later, minced prostate tissue from BalbC mice (syngeneic) was grafted into the chambers and allowed to vascularize for 7 to 10 days. Small tumor cells spheroids were implanted into each chamber. Tumor cells PTEN-P2 stably transfected with H2B-GFP fusion protein (PTEN-P2/GFP) were used in these experiments. The animals were surgically castrated about three weeks after implantation to inhibit androgen production. Surgical castration induces androgen deprivation, and is known in the art to effectively mimic clinical hormone therapy. Two weeks after castration, the mice were treated daily with plumbagin at 2 mg/kg ip."}, "fibrosarcomas": {"tested_on": "fibrosarcomas", "conditions": "cited from earlier work"}, "[2]": {"tested_on": "P388 lymphocytic leukemia", "conditions": "cited from earlier work"}, "hepatoma": {"tested_on": "hepatoma", "conditions": "in vivo; cited from earlier work"}, "[3]": {"tested_on": "hormone-refractory prostate cancer", "conditions": "Aziz et al., Cancer Res. 2008; cited from earlier work"}, "prostate carcinoma cells": {"tested_on": "prostate carcinoma cells", "conditions": "5 umol/L; cited from earlier work"}, "[4]": {"tested_on": "PTEN-P2/GFP prostate cancer cells", "experiment": "Effect of naphthoquinone analogs on PTEN-P2/GFP cell proliferation (CellTiter96 formazan-based viability assay)", "conditions": "Mus musculus, 24 h", "procedure": "Cell culture: PTEN-P2/GFP are cells that stably express histone H2B-GFP fusion protein.\nCells are grown in DMEM medium containing 10% FBS, 2 mM L-glutamine, 100 U/ml penicillin/100 μg/ml streptomycin, insulin-selenium-transferrin (5 μg/ml insulin), and DHT 10^−8 M final. Androgen withdrawal is achieved by keeping the cells in phenol red-free DMEM medium containing 10% charcoal-treated FBS and the same supplements as in the normal medium except for DHT. Cells are maintained in a humidified incubator at 37° C. and 5% CO2. G418 (100 μg/ml) is added to maintain stable expression of H2B-GFP.\nPTEN-P2/GFP prostate cancer cells were plated at a density of 8000 cells/well in 96-well plates (triplicates) in growing medium containing 10% Fetal Bovine Serum and DHT. The next day, increasing concentrations of a naphthoquinone analog (diluted from 10 mM DMSO stock solutions) were incubated for 24 hrs. Cell viability was determined by the formazan-based cytotoxicity assay “CellTiter96Aquaeous nonradioactive proliferation assay” (Promega)."}}, "note": "pIC50: −log10 of the molar value.", "data": [{"smiles": "CC1=CC(=O)c2c(O)cccc2C1=O", "note": "[Plumbagin, 5-hydroxy-2-methylnaphthalene-1,4-dione]", "values": [{"measurement": "efficiency of plumbagin with simulated castration (no DHT) versus plumbagin alone", "setting": "[1]; in vitro, PTEN-P2/GFP cells", "value": "more efficient than treatment with plumbagin alone"}, {"measurement": "% control", "setting": "[1]; noDHT, 1 μM plumbagin, first experiment", "value": 73.70, "unit": "%"}, {"measurement": "Average % control", "setting": "[1]; noDHT, 1 μM plumbagin", "value": 84.83, "unit": "%"}, {"measurement": "% control", "setting": "[1]; noDHT, 1 μM plumbagin, second experiment column", "value": 95.96, "unit": "%"}, {"measurement": "% control", "setting": "[1]; noDHT, 2 μM plumbagin, first experiment", "value": 42.90, "unit": "%"}, {"measurement": "Average % control", "setting": "[1]; noDHT, 2 μM plumbagin", "value": 40.02, "unit": "%"}, {"measurement": "% control", "setting": "[1]; noDHT, 2 μM plumbagin, second experiment column", "value": 37.14, "unit": "%"}, {"measurement": "% control", "setting": "[1]; noDHT, 4 μM plumbagin, first experiment", "value": 10.12, "unit": "%"}, {"measurement": "Average % control", "setting": "[1]; noDHT, 4 μM plumbagin", "value": 5.84, "unit": "%"}, {"measurement": "% control", "setting": "[1]; noDHT, 4 μM plumbagin, second experiment column", "value": 1.57, "unit": "%"}, {"measurement": "% control", "setting": "[1]; noDHT, 8 μM plumbagin, first experiment", "value": 0.45, "unit": "%"}, {"measurement": "Average % control", "setting": "[1]; noDHT, 8 μM plumbagin", "value": 0.33, "unit": "%"}, {"measurement": "% control", "setting": "[1]; noDHT, 8 μM plumbagin, second experiment column", "value": 0.22, "unit": "%"}, {"measurement": "% control", "setting": "[1]; with DHT, 1 μM plumbagin, first experiment", "value": 106.93, "unit": "%"}, {"measurement": "Average % control", "setting": "[1]; with DHT, 1 μM plumbagin", "value": 84.11, "unit": "%"}, {"measurement": "% control", "setting": "[1]; with DHT, 1 μM plumbagin, second experiment column", "value": 61.29, "unit": "%"}, {"measurement": "% control", "setting": "[1]; with DHT, 2 μM plumbagin, first experiment", "value": 94.18, "unit": "%"}, {"measurement": "Average % control", "setting": "[1]; with DHT, 2 μM plumbagin", "value": 56.67, "unit": "%"}, {"measurement": "% control", "setting": "[1]; with DHT, 2 μM plumbagin, second experiment column", "value": 19.16, "unit": "%"}, {"measurement": "% control", "setting": "[1]; with DHT, 4 μM plumbagin, first experiment", "value": 22.62, "unit": "%"}, {"measurement": "Average % control", "setting": "[1]; with DHT, 4 μM plumbagin", "value": 13.76, "unit": "%"}, {"measurement": "% control", "setting": "[1]; with DHT, 4 μM plumbagin, second experiment column", "value": 4.89, "unit": "%"}, {"measurement": "% control", "setting": "[1]; with DHT, 8 μM plumbagin, first experiment", "value": 0.85, "unit": "%"}, {"measurement": "Average % control", "setting": "[1]; with DHT, 8 μM plumbagin", "value": 0.62, "unit": "%"}, {"measurement": "% control", "setting": "[1]; with DHT, 8 μM plumbagin, second experiment column", "value": 0.40, "unit": "%"}, {"measurement": "apoptosis (AP) in tumor", "setting": "PTEN-P2/GFP tumor", "value": "increasing apoptosis"}, {"measurement": "efficiency of combination of plumbagin with castration versus castration alone", "setting": "PTEN-P2/GFP tumor", "value": "more efficient in vivo than castration alone"}, {"measurement": "mitosis (MI) in tumor", "setting": "PTEN-P2/GFP tumor", "value": "mitosis increased"}, {"measurement": "tumor size, castration with plumbagin", "setting": "PTEN-P2/GFP tumor", "value": "significant decreases in tumor size"}, {"measurement": "ED50", "setting": "fibrosarcomas", "value": 0.75, "unit": "mg/kg body weight"}, {"measurement": "ED50", "setting": "[2]", "value": 4, "unit": "mg/kg body weight"}, {"measurement": "effect on hepatoma", "setting": "hepatoma", "value": "induced regression of hepatoma"}, {"measurement": "effect on growth and invasion of hormone-refractory prostate cancer", "setting": "[3]", "value": "inhibited growth and invasion of hormone-refractory prostate cancer"}, {"measurement": "expression of PKCq, PI3K, AKT, activation of AP-1, NF-κB, Stat3", "setting": "prostate carcinoma cells", "value": "inhibit expression of multiple molecular targets"}, {"measurement": "pIC50", "setting": "[4]", "value": 5.34}, {"measurement": "viability at 1 µM", "setting": "[4]; 1 μM, medium with 10% FBS and DHT", "value": 94.6, "unit": "%"}, {"measurement": "viability at 2 µM", "setting": "[4]; 2 μM, medium with 10% FBS and DHT", "value": 90.9, "unit": "%"}, {"measurement": "viability at 3 µM", "setting": "[4]; 3 μM, medium with 10% FBS and DHT", "value": 88.9, "unit": "%"}, {"measurement": "viability at 4 µM", "setting": "[4]; 4 μM, medium with 10% FBS and DHT", "value": 73, "unit": "%"}, {"measurement": "viability at 5 µM", "setting": "[4]; 5 μM, medium with 10% FBS and DHT", "value": 32.9, "unit": "%"}, {"measurement": "viability at 7 µM", "setting": "[4]; 7 μM, medium with 10% FBS and DHT", "value": 0.4, "unit": "%"}, {"measurement": "viability at 10 µM", "setting": "[4]; 10 μM, medium with 10% FBS and DHT", "value": 0.6, "unit": "%"}]}]}
